According to patent publication US6331565A, “Dicaffeoylquinic acid for treating hepatitis B and the diseases associated with retrovirus, and the new caffeoylquinic acid derivatives” (Institute of Radiation Medicine Academy of Military Medical …, priority 1996, dated 2001):
Entries after “also recorded” stand apart in the source; their conditions may differ. Like-named read-outs stand apart in the source and are kept apart here.

Tests used:
HBV DNA polymerase = target: T1, HBV DNA polymerase (Hepatitis B virus genotype D subtype ayw, UniProt P03156); assay: HBV DNA polymerase assay; assay type: biochemical
T1 construct: HBV DNA polymerase in viral particles; host or cells: viral particles
Procedure: Assay was performed as described by Hantz (Antiviral Res 4(1984) 187-199) with minor modification. The Reaction mixture consisted of HBV DNA polymerase in viral particles in 200 mmol.l^-1 of Tris-HCl pH 7.6, 200 mmol.l^-1 of NH4 Cl. 50 mmol.l^-1 of MgCl2, 10 mmol.l^-1 of 2-mercaptoethanol, 2% Nonidet P-40 and 300 μmol.l^-1 concentrations of deoxynucleotide triphosphates except for [^3 H]dTTP, which was included in the assay at 20 μci.ml^-1. […] The mixtures were incubated at 37° C. for 4 h prior to spotting on Whatman No.3 filter paper which was washed 4 times with cold 5% trichloroacitic acid, then with ethanol. The HBV DNA polymerase activity as measure of the incorperation of the radionucleotide into the viral DNA was counted in a Recbeta (LKB)scintilation counter.

Hep G2 cell lines = assay: Cytotoxicity in Hep G2 cell lines; assay type: cell-based; conditions: 1.0 μg.ml^-1
Procedure: The viability of cells was determined by MTT.

[1] = Tolerance and general health in ducks; conditions: duck, in vivo; preliminary results; read-out: maximal tolerance dose in duck
[2] = test system: lymphocyte proliferation induced by Con A; conditions: mice infected with MuLV
Procedure: mice. Five-wk-old female C57BL/6 mice were used throughout the experiments. All mice were housed in sterile cages in a room supplied with filtrated air. They were given pelleted food and chlorinated water ad libitum.
Infection with LP-BM5 MuLV. Cell-free supernatants of LP-BM5 MULV were prepared by cocultivating G6 SC-1 clones with normal SC-1 cells for 5 days. Mice were inoculated intraperitoneally with 150 μl of stock solution containing 10^3,4×C plaque-forming units and 10^2,3 Mink-cell focks-forming units per […].
Then, the spleens were collected. Cell suspensions were prepared by repeated passage of whole spleen through a pipette, the capsule and debris were allowed to settle, and the supernatants containing cells were collected and washed twice in PBS. […] Incubation continued for 16 hr, then cells were collected on filter that was determined by a scintillation counter.

HBV DNA replication = conditions: FIG. 1; 15.625-250 ug/ml
Procedure: Hep G2 2.2.15 cell lines were maintained in DMEM supplemented with 10% fetal calf serum (FCS) and 100 units.ml^-1 of penicillin and streptomycin, 380 μg.ml^-1 of G418 in a humidified atmosphere containing 5% CO2 at 37° C. The cultures were passenged by trypsinization every 4 days. For bioassays cells were plated in 24-well plates at a density of 1.0×10^5 cells/well. Two-day-old cultures were treated with various concentrations of drug in DMEM containing 10 FCS. The drug was left in the medium for 4 days, and then the medium was aspirated and the fresh medium containing the same concentration of drug was added. At the end of three 4-day periods, the cells were harvested. The aliquot of the culture medium was used for the estimation of the HBV surface antigen (HBsAg) and HBV e antigen (HBeAg).
DNA extraction in 2.2.15 cells: Total DNA was isolated from 2.2.15 cells, cells was washed in PBS and lysed in a solution containing 50 mmol.l^-1 Tris-HCl (pH 7.5). 10 mmol.l^-1 EDTA. 1% SDS and 50 μg.ml^-1 of proteinase K (Sigma). After incubation at 37° C. for 4 h, total DNA was extracted in phenol-chloroform-isoamyl alcohol (25:24:1) followed by two extractions with chloroform-isoamyl alcohol. The DNA was precipitated with 1/10 vol NaOAc and 2.5 vol ethanol overnight at -70° C. […]

MT4 cells = assay: Cytotoxicity in uninfected MT4 cells (MTT); assay type: cell-based, human; conditions: 1000 μg.ml^-1, MTT
Procedure: (§1) A human T-cell leukemia cell line. MT4 cells, was used in this study. It was maintained in RPMI-1640 medium supplemented with 10% FCS. 100 U/ml of penicillin, and 100 μg/ml of streptomycin at 37° C. in a humidified atmosphere of 5% CO2. Cell cultures were split into fresh medium every 4 days.
(§2) After 4 h, 100 μl of solvent (10% Triton X-100 and 0.4% HCl isopropanol)was added to cultures to solubilizes formazan. After an overnight incubation, the absorbency of each well was measured using a microplate reader (Bio-Rad, model 450) at 560 nm.

HIV-1 = assay: microbe, parasite or virus in culture; conditions: Human immunodeficiency virus 1, MT4, in Homo sapiens, 168 h
Procedure: as §1
HIV-1 virus was propagated in MT4 cells. The cell-free supernatants of HIV-1 infected MT4 cell culture were used as virus stocks and frozen at -80° C. until used. The 50% tissue culture infected dose (TCID50) of the cell-free virus stock was determined by end-point titration with MT4 cells in 96-well microdilution plates.
as §2
MT4 cells in culture were counted by trypan blue exclusion method. The MT4 cells suspended in a small volume of RPMI-1640 medium without FCS and infected with HIV-1 at 200 TCID50 viruses per 10^6 cells. The mixture of MT4 cells and virus was subsequently incubated at 37° C. in a humidified atmosphere of 5% CO2 for 1 hr to allow virus to adsorbed to cells. Unabsorbed viruses were then removed by washing one with […] of the fresh medium and centrifuged at 1000 rpm for ten minutes. The cells were suspended in the medium and distributed into 12-well microculture plates (10^6 cells/3 ml/well). […] After 4-day incubation at 37° C. in a humidified atmosphere containing 5% CO2 the medium was aspirated and the fresh medium containing the same concentration of drug was added.
After 7-day incubation the viable cells was evaluated by MTT method as described above.

T1 sequence (P03156 whole entry): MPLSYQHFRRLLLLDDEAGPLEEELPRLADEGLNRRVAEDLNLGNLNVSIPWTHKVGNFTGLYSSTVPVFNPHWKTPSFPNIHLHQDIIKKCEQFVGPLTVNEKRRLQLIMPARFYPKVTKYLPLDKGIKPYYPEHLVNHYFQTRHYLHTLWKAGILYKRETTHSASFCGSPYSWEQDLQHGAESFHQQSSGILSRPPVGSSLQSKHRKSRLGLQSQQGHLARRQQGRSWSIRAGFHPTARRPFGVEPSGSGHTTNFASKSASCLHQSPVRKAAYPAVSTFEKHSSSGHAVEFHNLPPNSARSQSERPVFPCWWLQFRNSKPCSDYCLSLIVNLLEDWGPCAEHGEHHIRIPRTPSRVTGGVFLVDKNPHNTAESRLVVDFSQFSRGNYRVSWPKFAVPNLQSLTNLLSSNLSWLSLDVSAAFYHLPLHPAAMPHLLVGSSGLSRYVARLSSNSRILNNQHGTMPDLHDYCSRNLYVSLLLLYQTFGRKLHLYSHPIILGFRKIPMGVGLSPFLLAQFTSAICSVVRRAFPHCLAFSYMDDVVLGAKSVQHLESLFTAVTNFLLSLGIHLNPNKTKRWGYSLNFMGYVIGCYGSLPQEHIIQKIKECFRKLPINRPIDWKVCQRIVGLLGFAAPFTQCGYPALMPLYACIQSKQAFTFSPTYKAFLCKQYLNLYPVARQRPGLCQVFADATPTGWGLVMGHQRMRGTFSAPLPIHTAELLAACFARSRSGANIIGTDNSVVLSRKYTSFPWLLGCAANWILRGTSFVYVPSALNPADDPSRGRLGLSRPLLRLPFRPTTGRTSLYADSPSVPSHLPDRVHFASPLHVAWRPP

With `O=C(/C=C/c1ccc(O)c(O)c1)OC1CC(OC(=O)/C=C/c2ccc(O)c(O)c2)(C(=O)O)CC(O)C1O` (centres unmarked) [Compound A, 1,5-di-O-caffeoylquinic acid] as the compound, how does the IC50 (HBV DNA polymerase) read?
Its IC50 is 59.3 µM.

What about the “inhibitory effect on HBV DNAp” value (HBV DNA polymerase) of the same compound?
The value was “significant dose-dependent inhibitory effect”.

And the cpm (HBV DNA polymerase; 1 μg/ml)?
The cpm was 9856 ± 201 cpm.

What about the cpm (HBV DNA polymerase; 10 μg/ml) of the same compound?
Its cpm is 7990 ± 79 cpm.

What about the cpm (HBV DNA polymerase; 100 μg/ml) of the same compound?
The cpm was 3522 ± 51 cpm.

And the cpm (HBV DNA polymerase; 1000 μg/ml)?
Its cpm is 1983 ± 159 cpm.

And the inhibition at 1 µg/mL (HBV DNA polymerase; read-out: Inhibitory rate (%))?
Its inhibition at 1 µg/mL is 11.2 ± 1.9%.

What about the inhibition at 10 µg/mL (HBV DNA polymerase; read-out: Inhibitory rate (%)) of the same compound?
The inhibition at 10 µg/mL was 30.3 ± 0.8%.

What about the inhibition at 100 µg/mL (HBV DNA polymerase; read-out: Inhibitory rate (%)) of the same compound?
Its inhibition at 100 µg/mL is 68.4 ± 0.5%.

What about the inhibition at 1000 µg/mL (HBV DNA polymerase; read-out: Inhibitory rate (%)) of the same compound?
Its inhibition at 1000 µg/mL is 82.3 ± 1.5%.

And the “toxicity to Hep G2 cell lines” value (Hep G2 cell lines)?
The value was “did not show toxicity”.

And the MTD [1]?
The MTD was greater than 4000 mg/kg.

And the “proliferation of lymphocyte induced by Con A” value [2]?
Its value is “enhance the proliferation of lymphocyte induced by Con A in a degree near to that of AZT; also recorded: enhance the proliferation of lymphocyte of mice infected with MuLV”.

And the “inhibition of HBV DNA replication” value (HBV DNA replication)?
Its value is “inhibit HBV DNA replication in a dose dependent manner”.

And the “cytotoxicity to MT4 cells” value (MT4 cells)?
Its value is “markedly cytotoxic”.

What about the inhibition at 1.56 µg/mL (HIV-1; read-out: Inhibit rate (%), 1.56 μg/ml, 1000 TCID50 (first column pair), 7 days) of the same compound?
The inhibition at 1.56 µg/mL was 7.2%.

What about the inhibition at 1.56 µg/mL (HIV-1; read-out: Inhibit rate (%), 1.56 μg/ml, 1000 TCID50 (second column pair), 7 days) of the same compound?
Its inhibition at 1.56 µg/mL is 8.1%.

And the inhibition at 3.12 µg/mL (HIV-1; read-out: Inhibit rate (%), 3.12 μg/ml, 1000 TCID50 (first column pair), 7 days)?
Its inhibition at 3.12 µg/mL is 21.1%.

What about the inhibition at 3.12 µg/mL (HIV-1; read-out: Inhibit rate (%), 3.12 μg/ml, 1000 TCID50 (second column pair), 7 days) of the same compound?
The inhibition at 3.12 µg/mL was 19%.

What about the inhibition at 6.25 µg/mL (HIV-1; read-out: Inhibit rate (%), 6.25 μg/ml, 1000 TCID50 (first column pair), 7 days) of the same compound?
Its inhibition at 6.25 µg/mL is 40%.

What about the inhibition at 6.25 µg/mL (HIV-1; read-out: Inhibit rate (%), 6.25 μg/ml, 1000 TCID50 (second column pair), 7 days) of the same compound?
Its inhibition at 6.25 µg/mL is 44.3%.

And the inhibition at 12.5 µg/mL (HIV-1; read-out: Inhibit rate (%), 12.5 μg/ml, 1000 TCID50 (first column pair), 7 days)?
The inhibition at 12.5 µg/mL was 55%.

What about the inhibition at 12.5 µg/mL (HIV-1; read-out: Inhibit rate (%), 12.5 μg/ml, 1000 TCID50 (second column pair), 7 days) of the same compound?
Its inhibition at 12.5 µg/mL is 56.5%.

And the inhibition at 25 µg/mL (HIV-1; read-out: Inhibit rate (%), 25 μg/ml, 1000 TCID50 (first column pair), 7 days)?
Its inhibition at 25 µg/mL is 69.9%.

What about the inhibition at 25 µg/mL (HIV-1; read-out: Inhibit rate (%), 25 μg/ml, 1000 TCID50 (second column pair), 7 days) of the same compound?
The inhibition at 25 µg/mL was 63.7%.

And the inhibition at 50 µg/mL (HIV-1; read-out: Inhibit rate (%), 50 μg/ml, 1000 TCID50 (first column pair), 7 days)?
The inhibition at 50 µg/mL was 74.8%.

What about the inhibition at 50 µg/mL (HIV-1; read-out: Inhibit rate (%), 50 μg/ml, 1000 TCID50 (second column pair), 7 days) of the same compound?
Its inhibition at 50 µg/mL is 60.6%.

And the inhibition at 100 µg/mL (HIV-1; read-out: Inhibit rate (%), 100 μg/ml, 1000 TCID50 (first column pair), 7 days)?
The inhibition at 100 µg/mL was 61.5%.

What about the inhibition at 100 µg/mL (HIV-1; read-out: Inhibit rate (%), 100 μg/ml, 1000 TCID50 (second column pair), 7 days) of the same compound?
Its inhibition at 100 µg/mL is 57.7%.
